Measurements reported in patent publication US4762701A, “In vivo cellular tracking” (SmithKline Beckman Corporation, priority 1986, dated 1988).
Peptide text beside a SMILES is read from it.

Experiments:
[1] = tested on: Yac cells; experiment: Doubling time of Yac cells after thirty minutes exposure to osmolarity regulating agents; format: cell-based, mouse; conditions: for Doubling Time: after thirty minutes exposure, PBS is the comparator; for effects on cell doubling time: compared to phosphate buffered saline
Experimental: The effect on cell viability of exposure to a variety of osmolarity regulating agents was determined by measuring the doubling time of Yac cells after the cells were exposed for thirty minutes to a variety of osmolarity regulating agents. Yac cells are a mouse lymphoma tissue culture cell line available from the American Type Culture Collection, Rockville, Maryland, and are described in the European Journal of Immunology 5:112-117 (1975).

[2] = Cyanine dye solubility in osmolarity regulating agents (relative fluorescence intensity, ethanol standard); format: physicochemical
Experimental: (§1) Included within compounds referred to herein as cyanine dyes are compounds of the above structure having one or more substitutions provided such substituted compounds are soluble in cell labelling media for at least as long as needed for labelling and have a sufficiently high membrane partition coefficient to remain associated with labelled cell membranes. […] Solubility in cell labelling media is determined as shown below by dispursing a cyanine dye in the labelling media and, by standard spectrafluorometric techniques, measuring fluorescence intensity over time. Decreasing fluorescence intensity indicates dye precipitation and adherence to vessel walls. Whether the dyes remain associated with cell membranes is determined, for example, using known flow cytometric procedures to monitor fluorescence intensity of red blood cells injected into the donor animal after labelling. Essentially constant fluorescence intensity of the labelled cells after injection establishes stability of the dye in cell membranes.
All measurements of concentration were made after removal of precipitates by centrifugation and dissolving small aliquots of osmolarity regulating agents containing cyanine dyes into ethanol for spectrofluorometric analysis. The dyes used were DiSC14 (5) and DiOC14 (3), and the osmolarity regulating agents were at iso-osmotic concentrations. Reductions in fluorescence intensity from the ethanol solution standard directly correlate with reductions in cyanine dye solubility.

[3] = tested on: rabbit red cells; experiment: In vivo stability of labelled rabbit red cells after reinfusion
Source text: To test in vivo stability of cells cyanine dye labelled according to the presently invented method, rabbit red cells were withdrawn, labelled with DiSC14 (5), and reinfused. Periodically thereafter, blood samples were obtained and analyzed for percent labelled cells and fluorescence intensity of the labelled cells.
In the fifth animal, not more than 20% of the cyanine dye had migrated from the labelled cells after 60 days in the rabbits' circulation.

[4] = Stability of DiSC14 (5) solutions in osmolarity regulating agents; format: physicochemical
Experimental: as §1
Additionally, stability of DiSC14 (5) solutions in sugars such as glucose, fructose, ribose, sorbose, sucrose, and xylose, sugar-alcohols such as glycerol, inositol, xylitol, and adonitol, and amino acids such as glycine and arginine was determined.

[5] = Solubility of DiSC14 (5) in iso-osmotic glucose diluted with water or sodium chloride solution; format: physicochemical
Experimental: Further, the solubility of cyanine dyes in a medium containing classical salts and osmolarity regulators in which the dyes are soluble was evaluated. […] Thus, reproducible cell labelling with cyanine dyes can be performed in media containing no more than small amounts of classical salts, such as sodium chloride, potassium chloride, calcium chloride, sodium acetate, potassium acetate, sodium sulfate, sodium iodide, choline chloride, or choline iodide, and preferably is performed in a medium in which no classical salts are used to regulate osmolarity.

[6] = tested on: V79 cells; experiment: Growth kinetics of stained V79 cells; format: cell-based; conditions: 10^-5 or 4×10^-5 M dye, versus unstained cells
Experimental: Cells cyanine dye labelled using the presently invented procedure were analyzed to determine the effect of labelling on cell viability. V79 cells which are available from the American Type Culture Collection, Rockville, Maryland, and are described in Prescott, D. M., Ann. New York Acad. Sci., 397:101-109 (1982), were labelled with a solution containing DiOC14 (3) at a concentration of 10^-5 or 4×10^-5 M and the growth kinetics of the stained cells were compared to unstained cells and an equal mixture of stained and unstained cells. […] Thus, labelling had no effect on cell growth.

[7] = in Phosphate Buffered Saline, ethanol = 100
[8] = in iso-osmotic Arginine, ethanol = 100
[9] = in iso-osmotic Choline Chloride, ethanol = 100, ** (DiSC14 (5) value) Artifact due to large crystals that did not pellet
[10] = in iso-osmotic Choline Iodide, ethanol = 100
[11] = in iso-osmotic Fructose, ethanol = 100
[12] = in iso-osmotic Glucose, ethanol = 100
[13] = in iso-osmotic Glycerol, ethanol = 100
[14] = in iso-osmotic Glycine, ethanol = 100
[15] = in iso-osmotic Inositol, ethanol = 100
[16] = in iso-osmotic Lyxose, ethanol = 100
[17] = in iso-osmotic Na2 SO4, ethanol = 100
[18] = in iso-osmotic NaCl, ethanol = 100
[19] = in iso-osmotic NaI, ethanol = 100
[20] = in iso-osmotic Ribose, ethanol = 100
[21] = in iso-osmotic Sorbose, ethanol = 100
[22] = in iso-osmotic Sucrose, ethanol = 100
[23] = in iso-osmotic Xylitol, ethanol = 100
[24] = in iso-osmotic Xylose, ethanol = 100
[25] = rabbit, reinfused labelled red cells

## O=S(=O)(O)CC(O)CN1CCOCC1 (centres unmarked) [MOPSO, 3-(N--morpholino)-2-hydroxypropane-sulfonic acid]
[1]
  Doubling Time: 178.4 h

## O=S(=O)(O)CC(O)CN1CCN(CCO)CC1 (centres unmarked) [HEPPSO, N--2-hydroxyethylpiperazine-N'--2-hydroxypropane-sulfonic acid]
[1]
  Doubling Time: 23.4 h
  effects on cell doubling time: negligible effects on cell doubling time

## O=S(=O)(O)CCCNC(CO)(CO)CO [TAPS, Tris(hydroxymethyl)-methylaminopropane sulfonic acid]
[1]
  Doubling Time: 32.7 h
  effects on cell doubling time: negligible effects on cell doubling time

## O=S(=O)(O)CCNC1CCCCC1 [CHES, 2-(N--cyclohexylamino)ethane sulfonic acid]
[1]
  Doubling Time: 51.5 h

## O=C(O)CN(CCO)CCO [BICINE, N,N--bis(2-hydroxyethyl)glycine]
[1]
  Doubling Time: 57.7 h

## NC(=O)CNCCS(=O)(=O)O [ACES, 2-[(2-Amino-2-oxoethyl)amino]ethane sulfonic acid]
[1]
  Doubling Time: 1038.4 h

## O=S(=O)(O)CC(O)CNC(CO)(CO)CO (centres unmarked) [TAPSO, 3-[N--tris(hydroxymethyl)methylamino]-2-hydroxypropanesulfonic acid]
[1]
  Doubling Time: 63.6 h

## OC[C@H]1O[C@@](CO)(O[C@H]2O[C@H](CO)[C@@H](O)[C@H](O)[C@H]2O)[C@@H](O)[C@@H]1O [Sucrose]
[1]
  Doubling Time: 41.0 h
  effects on cell doubling time: negligible effects on cell doubling time

## NCC(=O)NCC(=O)O [Glycylglycine] (H-Gly-Gly-OH)
[1]
  Doubling Time: 66.9 h

## CCCCCCCCCCCCCCN1C(=CC=CC=Cc2sc3ccccc3[n+]2CCCCCCCCCCCCCC)Sc2ccccc21 [DiSC14 (5)]
[2]; in Ethanol (standard)
  Relative Fluorescence Intensity (CONC): 100
[2]; [7]
  Relative Fluorescence Intensity (CONC): 2.1
[2]; in iso-osmotic Adonitol, ethanol = 100
  Relative Fluorescence Intensity (CONC): 34
[2]; [8]
  Relative Fluorescence Intensity (CONC): 17
[2]; in iso-osmotic CAPS, ethanol = 100
  Relative Fluorescence Intensity (CONC): 40
[2]; [9]
  Relative Fluorescence Intensity (CONC): 11
[2]; [10]
  Relative Fluorescence Intensity (CONC): 0.16
[2]; in iso-osmotic DIPSO, ethanol = 100, *** Precipitate in ethanol (data questionable)
  Relative Fluorescence Intensity (CONC): 43
[2]; in iso-osmotic EPPS, ethanol = 100
  Relative Fluorescence Intensity (CONC): 18
[2]; [11]
  Relative Fluorescence Intensity (CONC): 35
[2]; [12]
  Relative Fluorescence Intensity (CONC): 31
[2]; [13]
  Relative Fluorescence Intensity (CONC): 39
[2]; [14]
  Relative Fluorescence Intensity (CONC): 31
[2]; in iso-osmotic HEPPSO, ethanol = 100
  Relative Fluorescence Intensity (CONC): 20
[2]; [15]
  Relative Fluorescence Intensity (CONC): 42
[2]; [16]
  Relative Fluorescence Intensity (CONC): 0.12
[2]; in iso-osmotic Mannitol, ethanol = 100
  Relative Fluorescence Intensity (CONC): 29
[2]; [17]
  Relative Fluorescence Intensity (CONC): 7.4
[2]; [18]
  Relative Fluorescence Intensity (CONC): 6
[2]; [19]
  Relative Fluorescence Intensity (CONC): 1.1
[2]; [20]
  Relative Fluorescence Intensity (CONC): 24
[2]; [21]
  Relative Fluorescence Intensity (CONC): 40
[2]; [22]
  Relative Fluorescence Intensity (CONC): 41
[2]; in iso-osmotic TAPS, ethanol = 100
  Relative Fluorescence Intensity (CONC): 18
[2]; [23]
  Relative Fluorescence Intensity (CONC): 34
[2]; [24]
  Relative Fluorescence Intensity (CONC): 36
[3]; 60 days after labelling and reinjection, all but one of five rabbits
  fluorescence intensity of the stained cells: remained essentially unchanged 60 days after labelling and reinjection
[3]; fifth rabbit, after 60 days in circulation
  cyanine dye migrated from the labelled cells: not more than 20%
[3]; rabbit, labelled red cells
  clearance rate of red blood cells: did not affect the clearance rate of red blood cells
[3]; [25]
  lifetime of labelled red cells: 52 days
  number of circulating labelled red cells over time: decreased linearly as a function of time
[4]; in glucose, fructose, ribose, sorbose, sucrose, xylose, glycerol, inositol, xylitol, adonitol, glycine, arginine
  time for which dye was stable in solution: at least twenty
[4]; in many of the agents, sixty minutes
  amount of cyanine dye in solution at sixty minutes: had not significantly decreased at sixty minutes
[5]; diluted with distilled water
  solubility in iso-osmotic glucose solution on dilution with distilled water: not significantly affected by dilution with distilled water
[5]; dilution with only approximately 20% iso-osmotic sodium chloride solution
  solubility in iso-osmotic glucose solution on dilution with sodium chloride solution: reduced significantly

## O=S(=O)(O)CCCN1CCN(CCO)CC1 [EPPS, N--(2-Hydroxyethyl)piperazine-N'--3-propanesulfonic acid]
[1]
  Doubling Time: 32.2 h
  effects on cell doubling time: negligible effects on cell doubling time

## O=S(=O)(O)CC(O)CN(CCO)CCO (centres unmarked) [DIPSO, 3-[N--N--bis(2-hydroxyethyl)amino]-2-hydroxypropane-sulfonic acid]
[1]
  Doubling Time: 36.7 h
  effects on cell doubling time: negligible effects on cell doubling time

## CCCCCCCCCCCCCCN1C(=CC=Cc2oc3ccccc3[n+]2CCCCCCCCCCCCCC)Oc2ccccc21 [DiOC14 (3)]
[6]
  Cell doubling time of labelled cells: Cell doubling time was unaffected by cyanine dye labelling
[2]; in Ethanol (standard)
  Relative Fluorescence Intensity (CONC): 100
[2]; [7]
  Relative Fluorescence Intensity (CONC): 6.5
[2]; [8]
  Relative Fluorescence Intensity (CONC): 17.2
[2]; [9]
  Relative Fluorescence Intensity (CONC): 6.3
[2]; [10]
  Relative Fluorescence Intensity (CONC): 2.3
[2]; [11]
  Relative Fluorescence Intensity (CONC): 100
[2]; [12]
  Relative Fluorescence Intensity (CONC): 100
[2]; [13]
  Relative Fluorescence Intensity (CONC): 99.5
[2]; [14]
  Relative Fluorescence Intensity (CONC): 93
[2]; [15]
  Relative Fluorescence Intensity (CONC): 92
[2]; [16]
  Relative Fluorescence Intensity (CONC): 1.8
[2]; [17]
  Relative Fluorescence Intensity (CONC): 1.6
[2]; [18]
  Relative Fluorescence Intensity (CONC): 1.7
[2]; [19]
  Relative Fluorescence Intensity (CONC): 0.14
[2]; [20]
  Relative Fluorescence Intensity (CONC): 100
[2]; [21]
  Relative Fluorescence Intensity (CONC): 100
[2]; [22]
  Relative Fluorescence Intensity (CONC): 100
[2]; [23]
  Relative Fluorescence Intensity (CONC): 76.4
[2]; [24]
  Relative Fluorescence Intensity (CONC): 19-52

## NCCCS(=O)(=O)O [3-Amino-1-propanesulfonic acid]
[1]
  Doubling Time: 99.6 h

## O=S(=O)(O)CCCNC1CCCCC1 [CAPS, 3-(Cyclohexylamino)-1-propanesulfonic acid]
[1]
  Doubling Time: 45.8 h
  effects on cell doubling time: negligible effects on cell doubling time

## N[C@H]1C(O)O[C@H](CO)[C@@H](O)[C@@H]1O (some centres unmarked) [Glucosamine]
[1]
  Doubling Time: 288.4 h

## O=C[C@H](O)[C@@H](O)[C@H](O)[C@H](O)CO [Glucose]
[1]
  Doubling Time: 34.5 h
  effects on cell doubling time: negligible effects on cell doubling time
